Data published in patent publication US9486472B2, “Methods for modulating neuronal responses” (UNIVERSITY OF BRITISH COLUMBIA CANADA, priority 2003, dated 2016).

Assays:
[1] = system: CA1 neurons in hippocampal slices; experiment: Insulin-induced depression of AMPA receptor-mediated EPSCs, whole-cell recording of CA1 neurons; assay type: cell-based, rat; conditions: 100 μg/ml in recording pipette; insulin 0.5 μM in bath
Procedure: GST-GluR23Y and GST-GluR23A were constructed by subcloning corresponding PCR fragments into pGEX 4T-1 vectors. GST fusion proteins were expressed in DH5α E. coli and purified from bacterial lysates according to the manufacturer's protocol (Pharmacia). Products were dialyzed in PBS and concentrated using Microcon-10 columns (Amicon) for intracellular application during whole-cell recordings.
Hippocampal slices (400 μm thickness) were prepared from Sprague-Dawley rats aged 16-26 postnatal days and perfused at room temperature with artificial cerebrospinal fluid containing (mM): 126 NaCl, 26 NaHCO3, 10 glucose, 3 KCl, 1.2 KH2PO4, 1 MgCl2, and 1 CaCl2, saturated with 95% O2/5% CO2^14. The recording pipettes (4-5 MO) were filled with solution containing (mM): 135 CsCl, 10 HEPES, 5 QX-314, 4 Mg-ATP, 2 MgCl2, 0.5 EGTA, 0.2 GTP and 0.1 CaCl2, pH 7.4, 310 mOsm. Whole-cell recording of CA1 neurons and the induction of LFS-LTD were performed as previously described.^14 […]

[2] = system: CA1 neurons in hippocampal slices; experiment: LFS-induced hippocampal CA1 long-term depression (LTD); assay type: cell-based, rat; conditions: postsynaptic application, 100 μg/ml; 1 Hz for 15 min
Procedure: Hippocampal slices (400 μm thickness) were prepared from Sprague-Dawley rats aged 16-26 postnatal days and perfused at room temperature with artificial cerebrospinal fluid containing (mM): 126 NaCl, 26 NaHCO3, 10 glucose, 3 KCl, 1.2 KH2PO4, 1 MgCl2, and 1 CaCl2, saturated with 95% O2/5% CO2^14. The recording pipettes (4-5 MO) were filled with solution containing (mM): 135 CsCl, 10 HEPES, 5 QX-314, 4 Mg-ATP, 2 MgCl2, 0.5 EGTA, 0.2 GTP and 0.1 CaCl2, pH 7.4, 310 mOsm. Whole-cell recording of CA1 neurons and the induction of LFS-LTD were performed as previously described.^14
The level of GluR2 tyrosine phosphorylation was assayed following low-frequency stimulation (LFS) of hippocampal slices (1 Hz for 15 min, which reliably induces LTD under our experimental conditions), to determine whether tyrosine phosphorylation of GluR2 CT may be required for LFS-induced long term depression (LTD). Slices were homogenized in denaturing buffer 10 min after the stimulation and GluR subunits were immunoprecipitated and probed for phosphotyrosine. […] Induction of LTD by LFS was blocked by postsynaptic application of GST-GluR23Y (100 μg/ml), but not by the mutant peptide GST-GluR23A (100 μg/ml; FIG. 10B) or by GST-GluR2834-843 (FIG. 10C).

pp60 c-Src = pp60 c-Src (Homo sapiens, UniProt P12931); experiment: In vitro kinase assay with active recombinant Src; assay type: biochemical; conditions: GST fusion protein as substrate
Description: FIGS. 7 A-D. Insulin increases phosphorylation of tyrosine residues within the GluR2 carboxyl terminal (CT) region. A. In vitro tyrosine phosphorylation of the GluR2 CT. GST fusion proteins of the GluR1 CT (GST-GluR1CT), the GluR2 CT (GST-GluR2CT), residues 869-876 (YKEGYNVYG (SEQ ID NO. 4)) of the GluR2 CT (GST-GluR23Y), which contains a cluster of three tyrosine residues (Y869, Y873, and Y876) and the same amino acid stretch of the GluR2 CT with its tyrosine residues replaced by alanines (GST-GluR23A), along with the GST back bone (GST) as control, were incubated in the absence (−) or presence (+) of active recombinant pp60 c-Src. Phosphorylation products were immunoblotted using an anti-phosphotyrosine antibody (top panel). […] B. Expression levels of HA-GluR2 and HA-GluR23Y-3A (where tyrosines 869, 873 and 876 were mutated to alanines) 48 h after transient transfection into HEK293 cells were determined by a cell ELISA assay using permeabilized cells. C. HEK293 cells transiently transfected with HA-GluR1, HA-GluR2 or HA-GluR23Y-3A, along with empty vector (mock transfection) as control. Forty-eight hours later, the cells were treated with or without 0.5 μM insulin for 10 min. The lysates were then subjected to immunoprecipitation with an anti-HA antibody under denaturing conditions and immunoblotting with an anti-phosphotyrosine antibody (Top blot; IB: PY). […]

[3] = system: cultured cortical neurons; experiment: OGD-induced neuronal apoptosis (Cell Death Detection ELISAplus), GluR2-CT with PEP-1; assay type: cell-based; conditions: GluR2CT peptide (1 mM) with PEP-1, one hour before OGD; 24 hr after OGD
Procedure: (§1) Ischemia-like insult was mimicked by oxygen and glucose deprivation (OGD) for one hour in cultured cortical neurons (DIV 12-14). OGD is a well-characterized cell culture model of ischemia. GluR2CT peptide (1 mM) was delivered into neurons by mixing it with the carrier peptide PEP-1 and incubating neurons with the mixture for one hour before OGD challenge. […] (n=6; *: P<0.05, Student's test, compared with Control).

hippocampal neurons = experiment: NMDA- or STS-induced apoptosis in cultured hippocampal neurons (Cell Death ELISA, 11-dUTP, PI staining); assay type: cell-based, rat
Procedure: Hippocampi were rapidly removed from embryonic E l 8 Sprague Dawley rats and pooled prior to trituration. Hippocampal cell suspensions were plated onto poly-Dlysine coated culture dishes or glass coverslips and grown in Neurobasal™ media 10 (Invitrogen) for 14 days in vitro (DIV). The media from mature 14 DIV neurons was removed and replaced with 100 μM NMDA plus 10 μM glycine for 1 h at 37° C. prior to restoring neurons to the defined growth media. Twenty four hours after NMDA/glycine application, neurons were processed using cell death assays. NMDA-induced [Ca^2+]i responses were evoked and measured using methods described previously^26.
Apoptosis quantification: NMDA-induced apoptosis was quantified either using a Cell Death Detection Elisa Plus Kit (Roche Applied Sciences), which is based on the in vitro determination of cytoplasmic histone-associated DNA fragments, or using TdT mediated addition of biotinylated 11-dUTP to the free 3′-OH ends of DNA. Absorbance readings for both assays were carried out using a microplate reader.
Propidium Iodide (PI) staining of nuclei: After the induction of apoptosis, cells were fixed with 4% parafonnaldehyde/4% sucrose for 10 min followed by ice cold acetone for 1 min, and then stained with […] PI in Dulbecco's PBS for 30 min. Stained coverslips were mounted onto glass slides and viewed with a Leica fluorescence microscope to identify condensed nuclei. Cells with condensed nuclei were counted as apoptotic and the percentage of apoptotic cells to the total number of cells was calculated to give a semi-quantitative analysis, expressed as percentage of apoptosis.
A short peptide (YKEGYNVYGIE (SEQ ID NO. 2)) corresponding to amino acid residues from 869 to 879 of the C-terminus of GluR2 (R2-CT) was synthesized and incubated with a carrier protein (Pep-1)23 at a ratio of 1:20 in Dulbecco's modified Eagle's medium
(§2) (DMEM, Gibco) at 37° C. in a humidified atmosphere containing 5% CO2 for 30 min to allow the formation of R2-CT/Pep-1 complex. Hippocampal neurons (DW 12-14) were then overlaid with the preformed complex to reach a final R2-CT concentration of 1 μM and further incubated for 1 h before experiments commenced. Receptor Trafficking Assays

AMPA receptor [4] = experiment: Cell-ELISA of cell-surface AMPA receptors after NMDA treatment, hippocampal neurons; assay type: cell-based, rat; conditions: 100 μM NMDA + 10 μM glycine 1 h; R2-CT delivered with Pep-1 one hour prior to and during NMDA
Procedure: as §2
Cell ELISA assay: Quantification of cell-surface AMPA or NMDA receptors was performed by a colorimetric cell-ELISA assay essentially as described previously^14. Briefly, hippocampal neurons were treated with 100 μM NMDA plus 10 μM glycine for 1 h and then fixed with 4% paraformaldehyde/4% sucrose in PBS for 10 min. Half of the cells in each treatment condition were then permeabilized with 0.1% Triton-X 100 for 5 min. Receptors on the plasma membrane surface and the total cellular pool were then determined by incubating the cells with monoclonal antibodies against the extracellular domains of GluR2 or NR1 (Chemicon, 1 μg/ml) overnight at 4° C., followed by incubation with HRP-conjugated anti-mouse IgG secondary antibody (1:1000, Amersham Life Sciences) for 1 h at room temperature. Following extensive washing with PBS, cells were incubated with OPD substrate (Sigma) for approximately 10 min. Reactions were stopped with 0.2 volumes of 3N HCl, and absorbance at 492 nm was read using a spectrophotometric microplate reader.

AMPA receptor [5] = experiment: OGD-induced decrease of cell-surface AMPA receptors (Cell-ELISA), cultured cortical neurons; assay type: cell-based; conditions: GluR2CT peptide (1 mM) with PEP-1, one hour before OGD
Procedure: as §1

[6] = system: AMPA receptor (wild type GluR2); experiment: Colorimetric cell-ELISA receptor internalization assay, HEK293 cells expressing GluR2; assay type: cell-based, rat; conditions: insulin 0.5 μM, 10 min; approximately 25% without insulin
Description: Rat HA-tagged GluR1 and GluR2 receptor subunit cDNAs have been described previously^14. Constructs of HA-GluR2 carboxyl internal deletion or truncation mutants were made by standard PCR methods. The HA-GluR23Y-3A mutant was made using a Quick-Change Site Directed Mutagenesis Kit (Stratagene). HEK293 cells (ATCC) were transfected using the calcium phosphate precipitation method. Thirty six to forty eight hours after transfection, cells were washed with extracellular recording solution (ECS in mM: 140 NaCl, 33 glucose, 25 HEPES, 5.4 KCl, 1.3 CaCl2; pH 7.4, 320 mOsm) and incubated in ECS for at least one hour (serum starvation). […]
The ability of these mutants to undergo both constitutive and regulated endocytosis was assayed as described previously.^14 Surface receptors in live cells were pre-labelled with an anti-HA antibody (or an antibody against the extracellular N-terminal domain of GluR2 in the case of GluR2Δ854) at 4° C. […] Internalised receptors were then visualised by confocal microscopy and quantitated by colorimetric cell-ELISA-based receptor internalization assays (FIG. 6A). […] Transfected cells were pre-labeled with anti-HA antibody and then receptor endocytosis was evaluated under basal conditions (constitutive endocytosis) or following insulin stimulation (0.5 μM, 10 min; regulated endocytosis). […]

## GSTYKEGYNVYG [GST-GluR23Y, GST fusion protein of the nine amino-acid GluR2 CT stretch with three tyrosines]
[1]
  insulin-induced EPSC depression: prevented
[2]
  induction of LTD by LFS: blocked
pp60 c-Src
  tyrosine phosphorylation by recombinant Src kinase: phosphorylated

## YKEGYNVYGIE [R2-CT, short peptide corresponding to amino acid residues 869 to 879 of the C-terminus of GluR2]
[3]
  OGD-induced neuronal death: largely prevented
Hippocampal neurons; R2-CT alone or Pep-1 alone
  NMDA-induced apoptosis, peptide or carrier alone: neither R2-CT nor Pep-1 alone had any detectable effect
Hippocampal neurons; staurosporine 100 nM, 1 h
  STS-induced neuronal apoptosis: did not alter STS-induced neuronal apoptosis
AMPA receptor [4]
  NMDA-induced reduction of cell-surface AMPA receptors: prevented
AMPA receptor [5]
  OGD-induced decrease in cell-surface AMPA receptor expression: reduced the OGD-induced decrease in cell-surface AMPA receptor expression

## insulin: human recombinant insulin (Sigma)
[6]
  cell-surface receptors endocytosed within 30 min: 48%
